Experimental data: patent US20250034186A1, “ANTIVIRAL COMPOUNDS” (priority 2020, published 2025)
pEC50: −log10 of the molar value.

Assays:
RSV strain A2 = assay: RSV HEp-2 EC50, infectious cytopathic cell protection assay; format: cell-based; settings: human respiratory syncytial virus, 96 h; RSV A2 in HEp-2 cells, 4 days, Cell TiterGlo
Protocol: Antiviral activity against RSV is determined using an infectious cytopathic cell protection assay in HEp-2 cells. In this assay, compounds inhibiting viral infection and/or replication produce a cytoprotective effect against the virus-induced cell killing that can be quantified using a cell viability reagent. The techniques used here are novel adaptations of methods described in published literature (Chapman et al., Antimicrob Agents Chemother. 2007, 51(9):3346-53.).
HEp-2 cells are obtained from ATCC (Manassas, VI) and maintained in MEM media supplemented with 10% fetal bovine serum and penicillin/streptomycin. Cells are passaged twice a week and kept at subconfluent stage. Commercial stock of RSV strain A2 (Advanced Biotechnologies, Columbia, MD) is titered before compound testing to determine the appropriate dilution of the virus stock that generates desirable cytopathic effect in HEp-2 cells.
For antiviral tests, HEp-2 cells are grown in large cell culture flasks to near confluency but not fully so. The compounds to be tested are prediluted in DMSO in 384-well compound dilution plates, either in an 8 or 40 sample per plate standardized dose response format. 3-fold serial dilution increments of each test compound are prepared in the plates and test samples are transferred via acoustic transfer apparatus (Echo, Labcyte) at 100 nL per well into cell culture assay 384-well plates. Each compound dilution is transferred in single or quadruplicate samples into dry assay plates, which are stored until assay is ready to go. The positive and negative controls are laid out in opposite on ends of the plate in vertical blocks (1 column).
Subsequently, an infectious mixture is prepared using an appropriate dilution of virus stock previously determined by titration with cells at a density of 50,000/mL and 20 μL/well is added to test plates w/compounds via automation (uFlow, Biotek). Each plate includes negative and positive controls (16 replicates each) to create 0% and 100% virus inhibition standards, respectively. Following the infection with RSV, testing plates are incubated for 4 days in a 37° C. cell culture incubator. After the incubation, a cell viability reagent, Cell TiterGlo (Promega, Madison, WI) is added to the assay plates, which are incubated briefly, and a luminescent readout is measured (Envision, Perkin Elmer) in all the assay plates. The RSV-induced cytopathic effect, percentage inhibition, is determined from the levels of remaining cell viability. […] Various potent anti-RSV tool compounds are used as positive controls for antiviral activity.

RSV A2 = assay: RSV NHBE EC50, RSV A2 antiviral assay; format: cell-based; settings: human respiratory syncytial virus, 96 h; RSV A2 in NHBE cells, 4 days
Protocol: Normal human bronchial epithelial (NHBE) cells were purchased from Lonza (Walkersville, MD, Cat #CC-2540) and cultured in Bronchial Epithelial Growth Media (BEGM) (Lonza, Walkersville, MD, Cat #CC-3170). The cells were passaged 1-2 times per week to maintain <80% confluency. The NHBE cells were discarded after 6 passages in culture.
To conduct the RSV A2 antiviral assay, NHBE cells were plated in 96-well plates at a density of 7,500 cells per well in BEGM and allowed to attach overnight at 37° C. Following attachment, 100 μL of cell culture media was removed and 3-fold serially diluted compound was added using a Hewlett-Packard D300 Digital Dispenser. The final concentration of DMSO was normalized to 0.05%. Following compound addition, the NHBE cells were infected by the addition of 100 μL of RSV A2 at a titer of 1×10^4.5 tissue culture infectious doses/mL in BEGM and then incubated at 37° C. for 4 days. The NHBE cells were then allowed to equilibrate to 25° C. and cell viability was determined by removing 100 μL of culture medium and adding 100 μL of Cell-Titer Glo viability reagent. The mixtures were incubated for 10 minutes at 25° C., and the luminescence signal was quantified on an Envision luminescence plate reader.

HRV16 = HRV16 HeLa EC50; format: cell-based, human rhinovirus; settings: Human rhinovirus sp., HRV16; H1-HeLa cells, 96 h, 33° C.
Protocol: H1-HeLa cells, cultured in complete DMEM medium containing 10% heat-inactivated FBS and 1% Penicillin/Streptomycin, were seeded in 96 well plates at 3000 cells/well one day prior to compound dosing and infection. The antiviral activity of each compound was measured in triplicate. Compounds were added directly to the cell cultures in serial 3-fold dilutions using the HP300 digital dispenser (Hewlett Packard, Palo Alto, CA) immediately prior to infection. The plates were transferred to BSL-2 containment and the appropriate dilution of virus stock, previously determined by titration and prepared in cell culture media, was added to test plates containing cells and serially diluted compounds. Each plate included 6 wells of infected untreated cells and 6 wells of uninfected cells that served as 0% and 100% virus inhibition control, respectively. Following the infection, test plates were incubated for 96 h in a tissue culture incubator set to 33° C./5% CO2. Following incubation, the H1-HeLa cells were removed from incubation and allowed to equilibrate to 25° C. Cell viability was determined by removing 100 μL of culture medium and adding 100 μL of Cell-Titer Glo viability reagent. The mixtures were incubated on a shaker for 10 minutes at 25° C., and the luminescence signal was quantified on an Envision luminescence plate reader.

[1] = Stability assay in human hepatic S9 fractions; format: in vitro ADME; settings: 37° C., NADPH and UDPGA, read-out: Hum HepS9 t1/2
Protocol: (§1) For S9 stability, the compounds were incubated at 2 μM in cynomolgus monkey or human hepatic S9 fractions for up to 90 min at 37° C. in the presence of NADPH and UDPGA (Phase I and Phase II cofactor, Sigma-Aldrich). At desired time points following compound addition, samples were quenched with 9 volumes of an aqueous solution containing internal standard, 50% acetonitrile and 25% methanol. Sample plates were centrifuged at 3000 g for 30 min, and 10 μL of the resulting solution was analyzed by LC-MS/MS. Data (analyte to internal standard peak area ratio) were plotted on a semi log scale and fitted using an exponential fit. The half-life (T1/2) was determined assuming first order kinetics.

[2] = Stability assay in cynomolgus monkey hepatic S9 fractions; format: in vitro ADME; settings: 37° C., NADPH and UDPGA, read-out: Cyno HepS9 t1/2
Protocol: as §1

in vitro = in vitro ADME; settings: plasma, 37° C., up to 4 h
Protocol: For plasma stability, the compounds were incubated at 2 μM in cynomolgus monkey or human plasma for up to 4 h at 37° C. At desired time points, an aliquot from the incubation was quenched by addition of 9 volumes of 100% acetonitrile supplemented with internal standard. Following the last collection, samples were centrifuged at 3000 g for 30 min and supernatants were transferred to a new plate containing an equal volume of water for analysis by liquid chromatography coupled to triple quadrupole mass spectrometry (LC-MS/MS). Data (analyte to internal standard peak area ratio) were plotted on a semi log scale and fitted using an exponential fit. The half-life (T1/2) was determined assuming first order kinetics.

With `CCC(CC)COC(=O)[C@H](C)N[P@@](=O)(OC[C@@]1(C#N)O[C@@H](c2ccc3c(N)ncnn23)[C@H](O)[C@@H]1O)Oc1ccccc1` (single isomer, unassigned) [Compound 7] the pEC50 (RSV strain A2) was 6.91, the pEC50 (RSV A2) was 7.04 and the pEC50 (HRV16) was 6.74. It also gave a half-life at 2 μM [1] of 6 min, a half-life at 2 μM [2] of 2 min and a half-life at 2 μM (in vitro; cynomolgus monkey, read-out: Cyno Plasma t1/2) of 2.97 h. The half-life at 2 μM (in vitro; human, read-out: Hum Plasma t1/2) was 3.88 h.
